Assay results: patent publication US20160106743A1, “TOPOISOMERASE II POISONS AND METHODS OF MAKING AND USING SAME” (THE UNIVERSITY OF ROCHESTER, priority 2014, published 2016)
“Also recorded” adds a separate entry of the source.

Tests used:
puc118-based plasmid DNA = experiment: Topoisomerase I (Top1) DNA unwinding assay for intercalation; details: 15 min at 25° C., then 1 h with added Top1, FIG. 2
Excerpt: Samples were resolved by electrophoresis through 1% agarose 1×TAE gel and species *, **, and *** quantitated by densitometry (FIG. 2). Top1 alone (Lane 2) converts the DNA to a relaxed form (**) and some residual intermediate relaxed species (***).

purified yeast Top2 = molecular target: T1, purified yeast Top2 (Saccharomyces cerevisiae, UniProt P06786); experiment: Plasmid DNA (pUC18) cleavage by purified yeast Top2 (double strand breaks, linear form); type: biochemical; details: 10 μM etoposide or 1, 10 or 100 μM Compound 1, 150 ng purified yeast Top2, FIG. 5
T1 sequence (P06786 1-1428): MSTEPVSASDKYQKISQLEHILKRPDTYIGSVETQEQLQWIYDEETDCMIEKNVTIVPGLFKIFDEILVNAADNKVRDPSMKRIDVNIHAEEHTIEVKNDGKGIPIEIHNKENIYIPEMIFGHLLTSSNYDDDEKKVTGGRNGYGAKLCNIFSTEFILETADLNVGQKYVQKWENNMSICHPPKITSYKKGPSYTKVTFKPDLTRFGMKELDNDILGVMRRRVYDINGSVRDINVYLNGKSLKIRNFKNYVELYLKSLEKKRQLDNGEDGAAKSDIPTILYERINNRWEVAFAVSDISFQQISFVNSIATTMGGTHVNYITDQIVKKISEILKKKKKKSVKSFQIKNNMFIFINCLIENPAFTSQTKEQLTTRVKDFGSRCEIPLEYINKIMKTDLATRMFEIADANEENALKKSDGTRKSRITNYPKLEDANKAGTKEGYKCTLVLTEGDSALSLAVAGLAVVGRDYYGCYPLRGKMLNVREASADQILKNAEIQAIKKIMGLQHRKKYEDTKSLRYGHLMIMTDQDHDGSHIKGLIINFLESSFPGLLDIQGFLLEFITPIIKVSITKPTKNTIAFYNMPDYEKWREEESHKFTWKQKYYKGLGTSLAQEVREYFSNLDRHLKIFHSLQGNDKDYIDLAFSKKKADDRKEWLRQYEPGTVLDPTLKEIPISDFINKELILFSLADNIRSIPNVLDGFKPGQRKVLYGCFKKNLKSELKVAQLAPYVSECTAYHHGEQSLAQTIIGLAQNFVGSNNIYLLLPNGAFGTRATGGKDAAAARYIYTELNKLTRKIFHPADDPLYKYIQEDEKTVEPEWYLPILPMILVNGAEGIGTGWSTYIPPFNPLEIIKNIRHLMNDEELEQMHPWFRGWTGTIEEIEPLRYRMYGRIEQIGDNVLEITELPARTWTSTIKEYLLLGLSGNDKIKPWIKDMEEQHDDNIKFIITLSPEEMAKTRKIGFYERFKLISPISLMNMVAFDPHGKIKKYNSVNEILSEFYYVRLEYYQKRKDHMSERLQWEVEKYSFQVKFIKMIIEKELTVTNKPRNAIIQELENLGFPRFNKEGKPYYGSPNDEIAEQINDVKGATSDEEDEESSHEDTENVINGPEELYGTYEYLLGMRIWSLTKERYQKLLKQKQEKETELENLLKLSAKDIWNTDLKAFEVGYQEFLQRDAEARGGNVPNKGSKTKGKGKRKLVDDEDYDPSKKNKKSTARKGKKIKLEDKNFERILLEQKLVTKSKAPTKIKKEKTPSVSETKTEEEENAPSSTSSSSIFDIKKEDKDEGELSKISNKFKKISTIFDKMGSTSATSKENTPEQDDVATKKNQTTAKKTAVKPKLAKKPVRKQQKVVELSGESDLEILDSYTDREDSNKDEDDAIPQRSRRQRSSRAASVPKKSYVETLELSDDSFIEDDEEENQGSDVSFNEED
Protocol: Supercoiled (sc) plasmid DNA (pUC18) was exposed to 10 μM etoposide or 1, 10 or 100 μM Compound 1 in the presence and absence of 150 ng of purified yeast Top2 as described (Nitiss et al. (2012) Curr Protoc. Pharmacol. Chapter 3: Unit 3.3) (FIG. 5). TOP2 poisons induce Top2cc adducts containing double strand breaks. Double strand DNA breaks convert supercoiled (sc) pUC18 to a linear (lin) form.

[1] = system: Saccharomyces cerevisiae strain BY4741 overexpressing yeast TOP1; experiment: Yeast dilution growth on agar media, cells overexpressing TOP1; type: cell-based; details: Compound 1 10 μM in 0.1% DMSO, growth recorded after 48 h, FIG. 3
Protocol: (§1) Three-fold dilutions of Saccharomyces cerevisiae strain BY4741 overexpressing yeast TOP1, TOP2, or TOP3 from plasmid vectors were plated on agar media containing either 0.1% DMSO or Compound 1 (10 μM) in 0.1% DMSO (FIG. 3). Growth was recorded after 48 h. TOP1, TOP2, and TOP3 overexpressing cells grew at approximately the same rate as cells carrying an empty vector (top panel). […] However, Compound 1 was toxic to cells overexpressing TOP2. This phenomenon is characteristic of TOP2 poisons that stabilize toxic Top2cc adducts.

[2] = system: yeast cells expressing native levels of Top2; experiment: Yeast culture growth rate, native levels of TOP2 (empty expression vector); type: cell-based; details: FIG. 4
Excerpt: (§2) Yeast cultures overexpressing native TOP2 (TOP2) or an empty expression vector (empty) were exposed to increasing concentrations of Compound 1 (FIG. 4). […] This is an unusual property for a TOP2 poison, most or all of which are lethal at high concentrations.

[3] = system: yeast cells overexpressing TOP2; experiment: Yeast culture growth rate, TOP2 overexpressed from a plasmid vector; type: cell-based; details: increasing concentrations of Compound 1, FIG. 4
Excerpt: as §2

[4] = system: Noncancer MJT cells (primary foreskin fibroblasts); experiment: MJT noncancer cell viability with and without doxorubicin; type: cell-based, human
[5] = system: Saccharomyces cerevisiae strain BY4741 overexpressing yeast TOP2; experiment: Yeast dilution growth on agar media, cells overexpressing TOP2; type: cell-based; details: Compound 1 10 μM in 0.1% DMSO, growth recorded after 48 h, FIG. 3
Protocol: as §1

[6] = system: Human HT1080 fibrosarcoma cells; experiment: HT1080 cell viability, alone and combined with doxorubicin, vinblastine or etoposide; type: cell-based; design: viability of HT1080 cells, compound alone: dose or concentration left out as unconfirmed
Protocol: Human HT1080 fibrosarcoma cells were exposed for 48 hrs to DMSO (vehicle control), 0.5 μM doxorubicin, 0.5 nM vinblastine, and/or Compound 1 at the indicated concentrations (FIGS. 6A-6C, respectively). Viable cells remaining on the plates were quantified after 48 hrs. […] (FIG. 6B) Compound 1 enhances doxorubicin toxicity at concentrations as low as 2.5 μM. 10 μM Compound 1 enhances doxorubicin cytotoxicity several fold. […] The vinblastine results are inconsistent with Compound 1 acting by inhibition of multidrug resistance pumps, which, when inhibited, increase the toxicity of multiple cytotoxic drugs including vinblastine. […] Average values and standard deviation of the means are plotted. P-values determined by student t-test are shown for doxorubicin enhancement (B). DMSO (A) and doxorubicin (B) data were based on the average of 6 biological replicates. Vinblastine data (C) was based on three biological replicates.

[7] = system: Saccharomyces cerevisiae strain BY4741 overexpressing yeast TOP3; experiment: Yeast dilution growth on agar media, cells overexpressing TOP3; type: cell-based; details: Compound 1 10 μM in 0.1% DMSO, growth recorded after 48 h, FIG. 3
Protocol: as §1

Human Top2-α = molecular target: T2, Human Top2-α (Homo sapiens, UniProt P11388); experiment: Human Top2-α decatenation of kinetoplastid DNA (gel electrophoresis, densitometry); type: biochemical; details: increasing concentrations of Compound 1, 37° C. for 15 min, FIG. 1
T2 construct: purchased Topogen, Inc; Port Orange Fla
Protocol: Human Top2-α decatenation of kinetoplastid DNA (kDNA) was visualized by gel electrophoresis. Human Top2-α (Topogen, Inc; Port Orange Fla.) was added to 0.2 μg of kDNA in the presence of 1% DMSO (vehicle control) without or with increasing concentrations of Compound 1. Reactions were incubated at 37° C. for 15 min and terminated by addition of an SDS buffer. Samples were resolved by 1% agarose 1×TAE gel electrophoresis and stained with ethidium bromide. Decatenated versus intact kDNA species were quantified by densitometry (FIG. 1).

[8] = system: Saccharomyces cerevisiae strain BY4741 carrying an empty vector; experiment: Yeast dilution growth on agar media, cells carrying an empty vector; type: cell-based; details: Compound 1 10 μM in 0.1% DMSO, growth recorded after 48 h, FIG. 3
Protocol: as §1

T2 sequence (P11388 whole entry): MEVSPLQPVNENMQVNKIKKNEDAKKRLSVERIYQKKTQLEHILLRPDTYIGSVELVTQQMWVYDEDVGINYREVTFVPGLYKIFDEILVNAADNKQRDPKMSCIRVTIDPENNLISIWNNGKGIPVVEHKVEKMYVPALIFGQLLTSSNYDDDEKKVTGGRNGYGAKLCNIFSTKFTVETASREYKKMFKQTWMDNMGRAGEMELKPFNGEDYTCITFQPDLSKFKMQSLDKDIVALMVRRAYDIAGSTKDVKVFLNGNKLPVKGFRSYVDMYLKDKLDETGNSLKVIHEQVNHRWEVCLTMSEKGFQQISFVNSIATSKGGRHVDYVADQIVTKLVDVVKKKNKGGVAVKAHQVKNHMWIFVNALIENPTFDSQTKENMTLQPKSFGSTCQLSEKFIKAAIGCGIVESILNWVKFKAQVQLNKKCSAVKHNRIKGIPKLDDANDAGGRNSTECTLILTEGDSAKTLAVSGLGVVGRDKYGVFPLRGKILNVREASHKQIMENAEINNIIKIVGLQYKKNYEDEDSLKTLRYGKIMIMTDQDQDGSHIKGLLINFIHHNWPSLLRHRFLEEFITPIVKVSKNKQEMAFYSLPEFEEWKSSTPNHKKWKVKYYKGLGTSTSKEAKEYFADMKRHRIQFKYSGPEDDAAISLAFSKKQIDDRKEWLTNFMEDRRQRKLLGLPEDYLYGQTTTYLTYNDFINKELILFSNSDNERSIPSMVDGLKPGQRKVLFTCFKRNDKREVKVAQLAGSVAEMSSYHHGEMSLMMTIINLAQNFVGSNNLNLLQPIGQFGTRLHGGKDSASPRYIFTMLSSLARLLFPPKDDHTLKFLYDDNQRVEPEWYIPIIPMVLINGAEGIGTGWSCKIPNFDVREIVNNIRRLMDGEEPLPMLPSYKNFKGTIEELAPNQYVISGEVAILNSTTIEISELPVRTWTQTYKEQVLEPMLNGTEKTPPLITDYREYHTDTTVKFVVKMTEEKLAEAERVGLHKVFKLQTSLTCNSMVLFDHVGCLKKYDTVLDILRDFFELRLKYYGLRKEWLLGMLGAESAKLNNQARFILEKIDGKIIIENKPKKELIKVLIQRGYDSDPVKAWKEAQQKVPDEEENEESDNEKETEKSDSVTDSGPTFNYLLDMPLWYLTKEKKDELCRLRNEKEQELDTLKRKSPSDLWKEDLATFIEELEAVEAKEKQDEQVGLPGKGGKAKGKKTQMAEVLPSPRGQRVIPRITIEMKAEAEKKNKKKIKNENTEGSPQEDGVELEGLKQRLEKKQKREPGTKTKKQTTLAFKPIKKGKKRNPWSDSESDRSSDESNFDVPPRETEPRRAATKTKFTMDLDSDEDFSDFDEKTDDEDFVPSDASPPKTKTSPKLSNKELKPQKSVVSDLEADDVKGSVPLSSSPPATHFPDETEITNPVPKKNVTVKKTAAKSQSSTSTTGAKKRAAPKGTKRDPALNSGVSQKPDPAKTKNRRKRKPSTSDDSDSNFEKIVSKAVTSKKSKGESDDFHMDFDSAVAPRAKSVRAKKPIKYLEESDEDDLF

SMILES | unwinding of plasmid DNA in presence of Top1 (intercalation) (puc118-based plasmid DNA) | formation of the linear form of pUC18 (stable double strand breaks, Top2cc adducts) (purified yeast Top2) | growth of cells overexpressing TOP1 on agar [1] | growth in cells expressing native levels of Top2 at high concentrations ([2]; concentrations as high as 100 μM) | growth rate in cells expressing native levels of Top2 ([2]; concentrations below 10 μM) | growth in cells overexpressing TOP2 from a plasmid vector [3] | toxicity to MJT cells, compound alone ([4]; performed as in Example 6, FIG. 7) | enhancement of doxorubicin toxicity in MJT cells ([4]; various concentrations of doxorubicin with and without Compound 1, FIG. 7) | growth of cells overexpressing TOP2 on agar [5] | enhancement of doxorubicin cytotoxicity ([6]; 10 μM Compound 1, 0.5 μM doxorubicin, 48 hrs, FIG. 6B) | viability of HT1080 cells, compound alone ([6]; 48 hrs, DMSO vehicle, FIG. 6A) | lowest concentration enhancing doxorubicin toxicity ([6]; 48 hrs, with 0.5 μM doxorubicin, FIG. 6B) [µM] | enhancement of HT1080 cell killing at multiple doxorubicin concentrations ([6]; various concentrations of doxorubicin and Compound 1, FIG. 6D) | enhancement of vinblastine toxicity ([6]; with 0.5 nM vinblastine, 48 hrs, FIG. 6C) | growth of cells overexpressing TOP3 on agar [7] | inhibition of decatenation of kinetoplastid DNA by human Top2-α (Human Top2-α) | growth of cells carrying an empty vector on agar [8]
COc1cccc2c1C(=O)c1c(O)c3c(c(O)c1C2=O)C[C@@](O)(C(=O)CO)C[C@@H]3O[C@H]1C[C@H](N)[C@H](O)[C@H](C)O1 [doxorubicin] | DNA is unwound | – | – | – | – | – | – | – | – | – | – | – | – | – | – | – | –
COc1cc([C@@H]2c3cc4c(cc3[C@@H](O[C@@H]3O[C@@H]5CO[C@@H](C)O[C@H]5[C@H](O)[C@H]3O)[C@H]3COC(=O)[C@H]23)OCO4)cc(OC)c1O [etoposide, reference compound] | do not unwind the DNA | induced yeast Top2 to form the linear form of pUC18 | – | – | – | – | – | – | – | – | – | – | – | – | – | – | –
c1ccc2nc3c(nc2c1)[nH]c1ccccc13 [Compound 1, 6H-indolo[2,3-b]quinoxaline] | do not unwind the DNA | induced yeast Top2 to form the linear form of pUC18 | no effect on the growth | cells continue to thrive | partial dose-dependent inhibition of growth rates | almost completely arrests growth | not itself toxic | nor does it enhance the toxicity of doxorubicin | toxic | several fold | no effect on the viability | 2.5 | dose-dependent enhancement | does not enhance vinblastine toxicity | no effect on the growth | inhibits human Top2-α at Micromolar Concentrations; also recorded: inhibited by increasing concentrations | no effect on the growth
